This experiment concerns S. pneumoniae ATCC 49619. Nature of the experiment: Minimal inhibitory concentration (MIC) by microdilution method (CLSI M7-A7). The format is cell-based, Streptococcus pneumoniae. Particulars: for MIC: Streptococcus pneumoniae, ATCC49619, cation-adjusted Mueller-Hinton Broth supplemented with 3% (v/v) lysed horse blood; for MIC for S. pneumoniae ATCC 49619: cation-adjusted Mueller-Hinton Broth supplemented with 3% (v/v) lysed horse blood. An outline of the steps: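 For S. pneumoniae, cation-adjusted Mueller-Hinton broth carried 3% (v/v) lysed horse blood; MICs (mg/l) were read by CLSI M7-A7 microdilution.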
Background: Broth dilution looks for growth in wells or tubes with falling amounts of substance.

Converted amounts (≈) assume the structure as drawn.

The term MIC denotes the lowest concentration found to suppress growth. The low end stands for inhibition by little substance, the high end for a need for much substance.

With `CCNC(=O)Nc1cc2cccc(COc3cccc(N)c3)c2cn1.Cl` [Example 260, 1-[8-(3-amino-phenoxymethyl)-isoquinolin-3-yl]-3-ethyl-urea hydrochloride], inhibition of growth (MIC) required 8 µg/mL. Take `CCNC(=O)Nc1cc2cccc(COc3ccccn3)c2cn1.Cl` [Example 261, 1-ethyl-3-[8-(pyridin-2-yloxymethyl)-isoquinolin-3-yl]-urea hydrochloride]: it took 8 µg/mL to inhibit growth (MIC). As to `CCNC(=O)Nc1cc2cccc(COc3ccncc3)c2cn1.Cl` [Example 262, 1-ethyl-3-[8-(pyridin-4-yloxymethyl)-isoquinolin-3-yl]-urea hydrochloride], it took 8 µg/mL to inhibit growth (MIC). The same measure, in the same setting: next, `CCNC(=O)Nc1cc2cccc(CNc3ccccn3)c2cn1.Cl` [Example 263, 1-ethyl-3-[8-(pyridin-2-ylaminomethyl)-isoquinolin-3-yl]-urea hydrochloride]: 4 µg/mL; `CCNC(=O)Nc1cc2cccc(Nc3ccc(C)c(C(=O)OC)c3)c2cn1` [Example 264, 5-[3-(3-ethyl-ureido)-isoquinolin-8-ylamino]-2-methyl-benzoic acid methyl ester]: 8 µg/mL (≈ 21.1 µM). Compound `CCNC(=O)Nc1cc2cccc(Nc3ccc(C)c(C(=O)O)c3)c2cn1` [Example 265, 5-[3-(3-ethyl-ureido)-isoquinolin-8-ylamino]-2-methyl-benzoic acid] gave an MIC of 1 µg/mL (≈ 2.74 µM).

Compound `CCNC(=O)Nc1cc2cccc(Nc3ccc(C(=O)OC)c(C)c3)c2cn1` [Example 266, 4-[3-(3-ethyl-ureido)-isoquinolin-8-ylamino]-2-methyl-benzoic acid methyl ester] gave an MIC of 4 µg/mL (≈ 10.6 µM).

The compound `CCNC(=O)Nc1cc2cccc(Nc3ccc(C(=O)O)c(C)c3)c2cn1` [Example 267, 4-[3-(3-ethyl-ureido)-isoquinolin-8-ylamino]-2-methyl-benzoic acid] yielded an MIC of 2 µg/mL (≈ 5.49 µM).

Compound `CCNC(=O)Nc1cc2c(Nc3cccnc3)ccc(Nc3cccnc3)c2cn1` [Example 268, 1-[5,8-bis-(pyridin-3-ylamino)-isoquinolin-3-yl]-3-ethyl-urea] returned an MIC of 4 µg/mL (≈ 10 µM).

As to `CCNC(=O)Nc1cc2c(CNC)ccc(C)c2cn1` [Example 269, 1-ethyl-3-(8-methyl-5-methylaminomethyl-isoquinolin-3-yl)-urea], the lowest concentration to inhibit growth (MIC) was 8 µg/mL (≈ 29.4 µM). Regarding `CCNC(=O)Nc1cc2c(CNC)ccc(Nc3cccnc3)c2cn1` [Example 270, 1-ethyl-3-{5-[(methylamino)methyl]-8-(pyridin-3-ylamino)-isoquinolin-3-yl}-urea], it took 4 µg/mL (≈ 11.4 µM) to inhibit growth (MIC). For `CCNC(=O)Nc1cc2c(CNC)ccc(Nc3cccc(OC)n3)c2cn1` [Example 271, 1-ethyl-3-{8-[(6-methoxy-pyridin)-2-ylamino]-5-[(methylamino)methyl]-isoquinolin-3-yl}-urea], the “MIC for S. pneumoniae ATCC 49619” value was determined as 4 µg/mL. For `CCNC(=O)Nc1cc2c(CNC)ccc(Nc3cccc(C(=O)O)c3)c2cn1` [Example 272, 3-{[3-(3-ethyl-ureido)-5-[(methylamino)methyl]-isoquinolin-8-yl]amino}-benzoic acid], the MIC worked out at 8 µg/mL (≈ 20.3 µM).

`CCNC(=O)Nc1cc2c(CN(C)C)ccc(Nc3cccc(OC)n3)c2cn1` [Example 273, 1-{5-[(dimethylamino)methyl]-8-[(6-methoxy-pyridin-2-yl)amino]-isoquinolin-3-yl}-3-ethyl-urea] showed an MIC of 4 µg/mL (≈ 10.1 µM). `CCNC(=O)Nc1cc2c(N3CCOCC3)ccc(Nc3cccnc3)c2cn1` [Example 274, 1-ethyl-3-[5-morpholin-4-yl-8-(pyridin-3-ylamino)-isoquinolin-3-yl]-urea] returned an MIC of 2 µg/mL (≈ 5.1 µM). The same measure, in the same setting: next, `CCNC(=O)Nc1cc2c(CN3CCOCC3)ccc(Nc3cccc(OC)n3)c2cn1` [Example 275, 1-ethyl-3-{8-[(6-methoxy-pyridin-2-yl)amino]-5-(morpholin-4-ylmethyl)-isoquinolin-3-yl}-urea]: 4 µg/mL (≈ 9.16 µM). With `CCNC(=O)Nc1cc2c(CN3CCN(C)CC3)ccc(Nc3cccc(OC)n3)c2cn1` [Example 276, 1-ethyl-3-[8-(6-methoxy-pyridin-2-ylamino)-5-(4-methyl-piperazin-1-ylmethyl)-isoquinolin-3-yl]-urea], the MIC is 4 µg/mL (≈ 8.9 µM). The compound `CCNC(=O)Nc1cc2c(N3CCN(C)CC3)ccc(Nc3cccnc3)c2cn1` [Example 277, 1-ethyl-3-[5-(4-methyl-piperazin-1-yl)-8-(pyridin-3-ylamino)-isoquinolin-3-yl]-urea] registered an MIC of 2 µg/mL (≈ 4.93 µM).

`CCNC(=O)Nc1cc2c(-c3ccncn3)ccc(C)c2cn1` [Example 278, 1-ethyl-3-(8-methyl-5-pyrimidin-4-yl-isoquinolin-3-yl)-urea]: the lowest concentration to inhibit growth (MIC) was 2 µg/mL (≈ 6.51 µM). In turn, `CCNC(=O)Nc1cc2c(-c3ccnnc3)ccc(C)c2cn1` [Example 279, 1-ethyl-3-(8-methyl-5-pyridazin-4-yl-isoquinolin-3-yl)-urea] came in with an MIC of 1 µg/mL (≈ 3.25 µM). On the same count and under the same terms, to `CCNC(=O)Nc1cc2c(-c3c[nH]cn3)ccc(C)c2cn1.Cl` [Example 280, 1-ethyl-3-[5-(1H-imidazol-4-yl)-8-methyl-isoquinolin-3-yl]urea hydrochloride] belongs 1 µg/mL; to `CCNC(=O)Nc1cc2c(-c3cn[nH]c3)ccc(C)c2cn1.Cl` [Example 281, 1-ethyl-3-[8-methyl-5-(1H-pyrazol-4-yl)-isoquinolin-3-yl]urea hydrochloride], 0.5 µg/mL; to `CCNC(=O)Nc1cc2c(-c3cccnn3)ccc(C)c2cn1.Cl` [Example 282, 1-ethyl-3-(8-methyl-5-pyridazin-3-yl-isoquinolin-3-yl)-urea hydrochloride], 8 µg/mL.

In turn, `CCNC(=O)Nc1cc2c(-c3cn(C)cn3)ccc(C)c2cn1.Cl` [Example 283, 1-ethyl-3-[8-methyl-5-(1-methyl-1H-imidazol-4-yl)-isoquinolin-3-yl]-urea hydrochloride] had a minimal inhibitory concentration (MIC) of 8 µg/mL. `CCNC(=O)Nc1cc2c(-c3cnn(C)c3)ccc(C)c2cn1.Cl` [Example 284, 1-ethyl-3-[8-methyl-5-(1-methyl-1H-pyrazol-4-yl)-isoquinolin-3-yl]-urea hydrochloride] registered an MIC of 4 µg/mL.

As for `CCNC(=O)Nc1cc2c(-c3cscn3)ccc(C)c2cn1.Cl` [Example 285, 1-ethyl-3-(8-methyl-5-thiazol-4-yl-isoquinolin-3-yl)-urea hydrochloride], the MIC amounted to 2 µg/mL. Same read-out and setting: to `CCNC(=O)Nc1cc2c(-c3ccncn3)ccc(Cl)c2cn1` [Example 286, 1-(8-chloro-5-pyrimidin-4-yl-isoquinolin-3-yl)-3-ethyl-urea] belongs 8 µg/mL (≈ 24.4 µM). The compound `CCNC(=O)Nc1cc2c(-c3ccncn3)ccc(Nc3ccc(C)nc3)c2cn1` [Example 287, 1-ethyl-3-[8-(6-methyl-pyridin-3-ylamino)-5-pyrimidin-4-yl-isoquinolin-3-yl]-urea] had an MIC of 0.25 µg/mL (≈ 0.626 µM). For the compound `CCNC(=O)Nc1cc2c(-c3c[nH]cn3)ccc(Cl)c2cn1` [Example 288, 1-[8-chloro-5-(1H-imidazol-4-yl)-isoquinolin-3-yl]-3-ethyl-urea], the MIC worked out at 2 µg/mL (≈ 6.33 µM). Take `CCNC(=O)Nc1cc2c(-c3cscn3)ccc(Nc3cccc(OC)n3)c2cn1` [Example 290, 1-ethyl-3-[8-(6-methoxy-pyridin-2-ylamino)-5-thiazol-4-yl-isoquinolin-3-yl]-urea]: the MIC is 0.5 µg/mL (≈ 1.19 µM). The same measure, in the same setting: to `CCNC(=O)Nc1cc2cccc(Nc3cccnc3OC)c2cn1.Cl` [Example 291, 1-ethyl-3-[8-(2-methoxy-pyridin-3-ylamino)-isoquinolin-3-yl]-urea hydrochloride] belongs 4 µg/mL; to `CCNC(=O)Nc1cc2cccc(Cn3cc(CO)cn3)c2cn1` [Example 292, 1-ethyl-3-[8-(4-hydroxymethyl-pyrazol-1-ylmethyl)-isoquinolin-3-yl]-urea], 8 µg/mL (≈ 24.6 µM); to `CCNC(=O)Nc1cc2cccc(Cn3ccnc3C(=O)O)c2cn1` [Example 294, 1-[3-(3-ethyl-ureido)-isoquinolin-8-ylmethyl]-1H-imidazole-2-carboxylic acid], 4 µg/mL (≈ 11.8 µM). `CCNC(=O)Nc1cc2cccc(Cn3cccn3)c2cn1` [Example 295, 1-ethyl-3-(8-pyrazol-1-ylmethyl-isoquinolin-3-yl)-urea] came in with an MIC of 8 µg/mL (≈ 27.1 µM). Consider `CCNC(=O)Nc1cc2cccc(Cn3ccnc3C)c2cn1` [Example 297, 1-ethyl-3-[8-(2-methyl-imidazol-1-ylmethyl)-isoquinolin-3-yl]-urea], for which the MIC amounted to 4 µg/mL (≈ 12.9 µM). `CCNC(=O)Nc1cc2cccc(Cn3ccnn3)c2cn1` [Example 298, 1-ethyl-3-(8-[1,2,3]triazol-1-ylmethyl-isoquinolin-3-yl)-urea] registered an MIC of 4 µg/mL (≈ 13.5 µM). As to `CCNC(=O)Nc1cc2cccc(Cn3ccnc3)c2cn1` [Example 299, 1-ethyl-3-(8-imidazol-1-ylmethyl-isoquinolin-3-yl)-urea], it took 4 µg/mL (≈ 13.5 µM) to inhibit growth (MIC). Turning to `CCNC(=O)Nc1cc2cccc(Cn3cc(C)cn3)c2cn1` [Example 300, 1-ethyl-3-[8-(4-methyl-pyrazol-1-ylmethyl)-isoquinolin-3-yl]-urea], it took 4 µg/mL (≈ 12.9 µM) to inhibit growth (MIC). `CCNC(=O)Nc1cc2cccc(CNc3cc(C)on3)c2cn1.Cl` [Example 301, 1-ethyl-3-{8-[(5-methyl-isoxazol-3-ylamino)-methyl]-isoquinolin-3-yl}-urea hydrochloride] showed an MIC of 4 µg/mL. `CCNC(=O)Nc1cc2cccc(CNc3ccc(OC)nc3)c2cn1.Cl` [Example 302, 1-ethyl-3-{8-[(6-methoxy-pyridin-3-ylamino)-methyl]-isoquinolin-3-yl}-urea hydrochloride]: the MIC was 8 µg/mL. The compound `CCNC(=O)Nc1cc2cccc(CNc3ccnn3C)c2cn1.Cl` [Example 303, 1-ethyl-3-{8-[(2-methyl-2H-pyrazol-3-ylamino)-methyl]-isoquinolin-3-yl}-urea hydrochloride] yielded an MIC of 4 µg/mL.

For the compound `CCNC(=O)Nc1cc2cccc(CNc3ncccn3)c2cn1` [Example 304, 1-ethyl-3-[8-(pyrimidin-2-ylaminomethyl)-isoquinolin-3-yl]-urea], it took 4 µg/mL (≈ 12.4 µM) to inhibit growth (MIC). Turning to “N-{1-[3-(3-ethyl-ureido)-8-methyl-isoquinolin-6-yl]-phenyl}-acetamide [Example 18]”, the “MIC for S. pneumoniae ATCC 49619” value is 0.25 µg/mL.

For the origin of these results see patent US20130096119A1, “Isoquinolin-3-Ylurea Derivatives” (priority 2010, published 2013).
